We go through one compound from patent publication US5202331A, “Therapeutic agent for dysuria comprising alpha-phenyl-alpha-pyridylalkanoic acid derivatives” (Fujisawa Pharmaceutical Co., Ltd., priority 1990, dated 1993).

A short description of one data set: Acute toxicity test. Also on record: species or system rats (Crj:CD(SD) strain). To be noted: rat, in vivo, 14 days observation, probit method. The method, then: Five rats (Crj:CD(SD) strain) of either sex were used per group. Solutions of the test compound were prepared as shown below and administered to rats intravenously or subcutaneously. The rats were then observed for 14 days. The LD50 values were calculated by the probit method. (Preparation of test solutions)
The test compound was dissolved in hydrochloric acid and the solution was adjusted to pH 6-7 with sodium hydrogen carbonate and diluted with physiological saline to the required concentrations.

Data set [1] has as its system isolated guinea pig bladder detrusor muscle. In words: Anticholinergic effect in the isolated guinea pig bladder (carbamylcholine-induced contraction). Further details: species or system male guinea pigs. Conditions: Cavia porcellus, contractions induced with 10 μM carbamylcholine, Krebs solution. How it is done:
Male guinea pigs weighing 400-700 g were fainted and killed by a blow on the occipital region. A bladder detrusor muscle specimen (15-20 mm long × 5 mm thick) was prepared by longitudinal section and suspended in a Magnus bath containing Krebs solution which was aerated with 95% O2 -5% CO2. Isotonic contractions were recorded through a tension transducer. The buffer solution was changed five times at 15-minute intervals. The equilibration time was […]. Contractions were induced with 10 μM carbamylcholine, and after the contractions became steady, the test compound was added to the Magnus bath and its anticholinergic effect was investigated.

In data set [2] the test system is urinary bladder contraction (hyperactive bladder, detrusor hyperreflexia). Kind of data set: Inhibition of urinary bladder contraction in the pressure-loaded hyperactive bladder model in rats. It counts as in vivo. To be noted: Rattus norvegicus, intravenous, urethane-anesthetized male S.D. rats, hydrostatic pressure about 10 mmHg. How it is done:
Male S.D. rats weighing 240-450 g were anesthetized with urethane (1.0 g/kg) s.c.. The urinary bladder was then exposed through a midline incision in the abdomen and the intravesical pressure was recorded. Thus, a balloon attached to one end of a stainless steel tube (1.2 mm in outer diameter, 5 cm in length) was inserted into the bladder through a small incision made in the bladder dome, while the other end of the tube was connected to a pressure transducer. The ureter was ligated and cut and a polyethylene cannula was inserted from the proximal cut end to drain off the urine.
Hyperactive bladder (detrusor hyperreflexia) was induced by water filling of the bladder. A hydrostatic pressure of about 10 mmHg was applied to the balloon in the bladder.
When the contractile response of the bladder to water pressure loading became steady, the test compound was administered intravenously.

For data set [3], the system named is voiding reflex bladder contraction. In words: Effect on voiding reflex bladder contraction in rats with the ureter ligated. It counts as in vivo. Conditions: Rattus norvegicus, iv, voiding reflex rhythmic bladder contraction, into the jugular vein, urethane-anesthetized male S.D rats. The source says: A midline incision was made in the abdomen of male S.D rats (body weight 250-350 g) under urethane (1.0 g/kg i.p.) anesthesia. A small incision was made in the bladder dome and one end of a polyethylene tube was inserted and, then, ligated. To the other end of the polyethylene tube was attached a three-way cock. An infusion pump was connected to one of the joints and a transducer was connected to another joint for measurement of the intravesical pressure. Physiological saline was then infused continuously into the bladder. After confirmation of steady voiding reflexes, the ureter was ligated immediately before the next voiding and the infusion of physiological saline was stopped. After the resulting rhythmic contractions became stable, the test compound was administered into the jugular vein to evaluate its effect.

Each structure is given as a SMILES string. Values after ≈ are worked out from the molar mass of the structure shown.

Usually LD50 stands for the dose expected to kill half of the subjects tested. High values mean lower toxicity, low ones greater toxicity. In general, IC50 refers to the concentration that inhibits the measured activity by half. A high value points to lower potency. Broadly, the ED50 is the dose that gives a 50% effect, or the effect in half of the subjects. For the compound `C[C@H](C[C@@](C(N)=O)(c1ccccc1)c1ccccn1)N(C)C` (relative stereo) [test compound, (±)-(2R*,4R*)-4-Dimethylamino-2-phenyl-2-(2-pyridyl)-valeramide], the median lethal dose (LD50) at 336 h in the data set “Acute toxicity test” (iv, Female) was determined as 42.3 mg/kg; in “Acute toxicity test” (iv, Male), 47.2 mg/kg; in “Acute toxicity test” (sc, Female) it was 915 mg/kg; in “Acute toxicity test” (sc, Male), 922 mg/kg. The same compound had an IC50 in data set [1] of 0.6 µg/mL (≈ 2.02 µM). The compound also gave an ED30 in data set [2] of 0.09 mg/kg. Moreover, in data set [3], the median effective dose (ED50) amounted to 0.56 mg/kg.
